The values below are quoted from earlier work in patent US11771641B2, “Method for dyeing keratinous material by means of a premix of aminosilicone and a chromophoric compound” (Henkel AG & Co. KGaA, priority 2019, dated 2023).

For the series the following is noted: 25° C.

For the molecule `CCN(Cc1cccc(S(=O)(=O)O)c1)c1ccc(C(=C2C=CC(=[N+](CC)Cc3cccc(S(=O)(=O)O)c3)C=C2)c2ccccc2S(=O)(=O)[O-])cc1` [Acid Blue 9], the solubility in water entry is listed as “more than 20 % by weight”.

As to `O=S(=O)(O)c1ccc(N=Nc2c(O)ccc3ccccc23)cc1` [Acid Orange 7, 4-[(2-hydroxy-1-naphthyl)azo]benzene sulphonate], the solubility in water result is “more than 7 g/L”.

Regarding `O=[N+]([O-])c1cc([N+](=O)[O-])c2ccc(S(=O)(=O)O)cc2c1O` [Acid Yellow 9, 8-hydroxy-5,7-dinitro-2-naphthalenesulfonic acid], the solubility in water result was “above 40 g/L”.

Take `O=C(O)C1=NN(c2ccc(S(=O)(=O)O)cc2)C(=O)C1N=Nc1ccc(S(=O)(=O)O)cc1` (stereo not shown) [Acid Yellow 23, 4,5-dihydro-5-oxo-1-(4-sulfophenyl)-4-((4-sulfophenyl)azo)-1H-pyrazole-3-carboxylic acid]: the “solubility in water (in words)” value is given as “highly soluble”.
